Source: patent US4567200A, “Esters of mercapto acyl-carnitines and pharmaceutical compositions containing same” (Sigma-Tau Industrie Farmaceutiche Riunite S.p.A., priority 1981, dated 1986)
Structures can show the parent of a compound that is named as a salt.

Key:
[1] = Protection against X-ray exposure, survival of irradiated rats; format: in vivo, Albino Wister rats; conditions: 20-25 mg Kg^-1 1 hour before irradiation and 10 mg Kg^-1 per day in subsequent 20 days
Procedure: The effect of the compounds of formula (I) towards the damages provoked by X-ray exposure was studied.
The experiment animals, Albino Wister rats, treated with the compounds under examination (20-25 mg Kg^-1 1 hour before irradiation and 10 mg Kg^-1 per day in the subsequent 20 days) were irradiated and checked over a time period to detect the onset of toxic effects and the time of survival with respect to the control group.
In table II, the percentage of survival at the 10th, 15th and 20th day from irradiation are reported.

[2] = Expectorant activity (bronchial secretion), method of Perry et al.; format: in vivo, male rabbits; conditions: rabbits
Procedure: The tests were carried out on male rabbits, weighing 2-3 Kg, anesthetized with ethyl urethane, by following the method disclosed by Perry et al. (J. Pharm. Exp. Ther. 73, 65, 1941).
Each cannula was connected to a feeding device which delivered a steady flow-rate of pre-heated air (36°-38° C.) at constant humidity (80%). At the lower end of each cannula, a graduated cylinder was fitted, wherein the bronchial secretion was collected. All of the animals breathed spontaneously and consequently they self-regulated the air intake suitable for normal respiration. After an hour following cannula insertion, the animals were administered orally (by stomach tube) the compounds of general formula (I) dissolved in distilled water at the doses indicated in Table IV. Each dose of drug was administered to 5 animals. The control animals (8) were given water only. The amount of secretion was determined after 1, 2 and 4 hours from administration.

[3] = Cutaneous regeneration from burns in rabbits; format: in vivo; conditions: 25 mg Kg^-1 oral once a day for seven days
Procedure: The ability of the compounds of formula (I) to speed up the cutaneous regeneration from burns has been tested in rabbits.
A 4 cm^2 cutaneous area of the average-top zone of the test animal back was burned.
The compounds were orally administered in aqueous solution at the dose of 25 mg Kg^-1 once a day for seven days. The area of cutaneous regeneration, i.e., the area of the newly formed tissue was then measured (Table III).

[4] = Acute toxicity in the mouse, Weil method; conditions: in vivo, ip
Text: The acute toxicity of the compounds of general formula (I) has been studied in the mouse with the Weil method (Weil C.S., Biometr. J. 8, 249, 1952).
The LD50 values of some compounds illustrated in Table I, indicate that the compounds are remarkably well tolerated.
LD50, mg Kg^-1, ep in mice of some mercapto
acyl-carnitine esters of general formula (I).
Weil's method (N = 5, K = 4)

[5] = Mucolytic activity in vitro, thromboelastograph, method of Morandini et al.; conditions: human sputum
Procedure: The tests were carried out in vitro by using the method disclosed by Morandini et al. (Lotta contro la tubercolosi 47, n. 4, 1977). A thromboelastograph was used to follow the variations induced by the compounds of general formula (I) and acetylcysteine on the rheological properties of human sputum.

[6] = 1 ml of a 10% solution at dilution 1/30
[7] = 1 ml of a 10% solution at dilution 1/60

SMILES	Percentage of surviving animals ([1]; 10th day from irradiation) [%]	Percentage of surviving animals ([1]; 15th day from irradiation) [%]	Percentage of surviving animals ([1]; 20th day from irradiation) [%]	Percentage variations of bronchial secretion versus values ([2]; oral 20 mg, 2 hours)	Percentage variations of bronchial secretion versus values ([2]; oral 20 mg, 4 hours)	Percentage of regenerated tissue ([3]; 4th day from treatment) [%]	Percentage of regenerated tissue ([3]; 8th day from treatment) [%]	LD50 [4] [mg/kg]	Percentage drop ± s.e. of the tracing versus maximum peak (mucolytic activity index) [5, 6] [%]	Percentage drop ± s.e. of the tracing versus maximum peak (mucolytic activity index) [5, 7] [%]	Percentage variations of bronchial secretion versus values ([2]; oral 15 mg, 2 hours)	Percentage variations of bronchial secretion versus values ([2]; oral 15 mg, 4 hours)	Percentage variations of bronchial secretion versus values ([2]; oral 20 mg, 1 hour)	Percentage variations of bronchial secretion versus values ([2]; oral 25 mg, 1 hour)	Percentage variations of bronchial secretion versus values ([2]; oral 25 mg, 2 hours)	Percentage variations of bronchial secretion versus values ([2]; oral 25 mg, 4 hours)	Percentage variations of bronchial secretion versus values ([2]; oral 15 mg, 1 hour)
CCC(S)C(=O)OC(CC(=O)OCC(C)C)C[N+](C)(C)C (stereo not shown) [2-mercapto butyryl carnitine isobutyl ester]	95	65	50	-0.4%	+0.2%	35	70	236	95.9 ± 5	51.2 ± 3							
CC(C)COC(=O)CC(C[N+](C)(C)C)OC(=O)C(C)S (stereo not shown) [2-mercapto propionyl carnitine isobutyl ester]	85	70	45			25	65	274	80.4 ± 7	42.8 ± 4	-0.1%	+0.5%					
CCOC(=O)CC(C[N+](C)(C)C)OC(=O)CCS (stereo not shown) [3-mercapto propionyl carnitine ethyl ester]	90	85	60	+0.8%	+1.0%	40	100	228	79.8 ± 4	39.5 ± 5			+0.6%				
CC(C)COC(=O)CC(C[N+](C)(C)C)OC(=O)CCCS (stereo not shown) [4-mercapto butyryl carnitine isobutyl ester]	100	75	55			25	75	231						+0.5%	+0.9%	+2.1%	
COC(=O)CC(C[N+](C)(C)C)OC(=O)CCCCS (stereo not shown) [5-mercapto valeryl carnitine methyl ester]	85	60	40	+0.5%	+1.0%	45	100	219	90.2 ± 6	48.4 ± 4			+0.3%				
CC(=O)N[C@@H](CS)C(=O)O [Acetylcysteine, acetylcysteine, reference compound]									75.6 ± 7	23.8 ± 5							
CC(C)OC(=O)CC(C[N+](C)(C)C)OC(=O)CS (stereo not shown) [mercapto acetyl carnitine hydrochloride isopropyl-ester]	80	55	30			30	70	250	82.5 ± 5	44.3 ± 3	+0.7%	+2.1%					+0.5%
